Results reported in US11242537B2, “Method for improving sensitivity of plant to gibberellin inhibitor and use thereof” (CHINA AGRICULTURAL UNIVERSITY, priority 2017, dated 2022).

Legend:
HRP::ga1-1 = experiment: Effects of different concentrations of DPC on plant height (step 4.2), HRP::ga1-1; type: in vivo, Arabidopsis thaliana
Method: (§1) In the following examples, the growth conditions of Arabidopsis thaliana are: culturing in a growth chamber with a photoperiod of 16 h light/8 h dark, a light intensity of 60 μmol/m^2/s, a humidity of 60%-70%, and a temperature of 22° C.
(§2) The experiment was repeated three times, and the specific steps of each repeated experiment were as follows:
(§3) Seventy homozygous line plants of the HRP::ga1-1 of step 2 were randomly selected and randomly divided into seven groups, ten plants in each group. On the 33rd day of sowing (the day of sowing was recorded as the first day of sowing), the plants of these seven groups were treated as follows, respectively: one group was sprayed with water (i.e., 0 mg/L aqueous DPC solution) and cultured for 12 days to obtain untreated HRP::ga1-1; one group was sprayed with 30 mg/L aqueous DPC solution and cultured for 12 days to obtain 30 mg/L DPC-treated HRP::ga1-1; one group was sprayed with 50 mg/L aqueous DPC solution and cultured for 12 days to obtain 50 mg/L DPC-treated HRP::ga1-1; one group was sprayed with 100 mg/L aqueous DPC solution and cultured for 12 days to obtain 100 mg/L DPC-treated HRP::ga1-1; one group was sprayed with 300 mg/L aqueous DPC solution and cultured for 12 days to obtain 300 mg/L DPC-treated HRP::ga1-1; one group was sprayed with 500 mg/L aqueous DPC solution and cultured for 12 days to obtain 500 mg/L DPC-treated HRP::ga1-1; one group was sprayed with 1000 mg/L aqueous DPC solution and cultured for 12 days to obtain 1000 mg/L DPC-treated HRP::ga1-1.
(§4) The plant heights of the differently treated Arabidopsis thaliana were measured respectively (FIG. 3), and the average plant heights are shown in Table 3.

ga1-1 = experiment: Effect of DPC on plant height (step 4.1), mutant ga1-1; type: in vivo, Arabidopsis thaliana; details: for Plant height: 12 days; for Plant height reduction rate: relative to 0 mg/L
Method: as §1, §2
When the ga1-1 was cultured to the 33rd day of sowing (the day of sowing was recorded as the first day of sowing), 30 plants were taken and randomly divided into three groups, ten plants in each group and the plants of these three groups were treated as follows, respectively: one group was sprayed with 0 mg/L DPC solution and cultured for 12 days to obtain untreated ga1-1; one group was sprayed with 30 mg/L aqueous DPC solution and cultured for 12 days to obtain 30 mg/L DPC-treated ga1-1; the last group was sprayed with 500 mg/L DPC solution and cultured for 12 days to obtain 500 mg/L DPC-treated ga1-1.
(§5) The plant heights of the above Arabidopsis thaliana before the treatment (FIG. 1) and after different treatments (FIG. 2 and Table 2) were measured.

ZmCPS::ga1-1 = experiment: Effect of DPC on plant height (step 4.1), ZmCPS::ga1-1; type: in vivo, Arabidopsis thaliana; details: for Plant height: 12 days; for Plant height reduction rate: relative to 0 mg/L
Method: as §1, §2
(§6) Thirty homozygous line plants of the HRP::ga1-1 of step 2 were randomly selected and randomly divided into three groups, ten plants in each group. On the 33rd day of sowing (the day of sowing was recorded as the first day of sowing), the plants of these three groups were treated as follows, respectively one group was sprayed with water (i.e., 0 mg/L DPC solution) and cultured for 12 days to obtain untreated HRP::ga1-1; one group was sprayed with 30 mg/L DPC solution and cultured for 12 days to obtain 30 mg/L DPC-treated HRP::ga1-1; the last group was sprayed with 500 mg/L aqueous DPC solution and cultured for 12 days to obtain 500 mg/L DPC-treated HRP::ga1-1.
(§7) According to the above method, the homozygous line plants of the HRP::ga1-1 were replaced with the homozygous line plants of the HRP::ga1-5, the homozygous line plants of the ZmCPS::ga1-1, the homozygous line plants of the ZmCPS::ga1-5, the homozygous line plants of the PsSuper1300::ga1-1 and the homozygous line plants of the PsSuper1300::ga1-5 respectively, the other steps were unchanged, and untreated HRP::ga1-5, 30 mg/L DPC-treated HRP::ga1-5, 500 mg/L DPC-treated HRP::ga1-5, untreated ZmCPS::ga1-1, 30 mg/L DPC-treated ZmCPS::ga1-1, 500 mg/L DPC-treated ZmCPS::ga1-1, untreated ZmCPS::ga1-5, 30 mg/L DPC-treated ZmCPS::ga1-5, 500 mg/L DPC-treated ZmCPS::ga1-5, untreated PsSuper1300::ga1-1, 30 mg/L DPC-treated PsSuper1300::ga1-1, 500 mg/L DPC-treated PsSuper1300::ga1-1, untreated PsSuper1300::ga1-5, 30 mg/L DPC-treated PsSuper1300::ga1-5 and 500 mg/L DPC-treated PsSuper1300::ga1-5 were obtained, respectively.
as §5

pSuper1300::ga1-5 = experiment: Effect of DPC on plant height (step 4.1), empty vector pSuper1300::ga1-5; type: in vivo, Arabidopsis thaliana; details: for Plant height: 12 days; for Plant height reduction rate: relative to 0 mg/L
Method: as §1, §2, §6, §7, §5

maize Zhengdan 958 = details: 1000 mg/L DPC (Chen yin, 2012); cited from earlier work
HRP::ga1-5 = experiment: Effects of different concentrations of DPC on plant height (step 4.2), HRP::ga1-5; type: in vivo, Arabidopsis thaliana
Method: as §1, §2, §3
According to the above method, the homozygous line plant of the HRP::ga1-1 was replaced with the pure homozygous line plant of the HRP::ga1-5, and the other steps were unchanged to obtain untreated HRP::ga1-5, 30 mg/L DPC-treated HRP::ga1-5, 50 mg/L DPC-treated HRP::ga1-5, 100 mg/L DPC-treated HRP::ga1-5, 300 mg/L DPC-treated HRP::ga1-5, 500 mg/L DPC-treated HRP::ga1-5 and 1000 mg/L DPC-treated HRP::ga1-5, respectively.
as §4

[1] = 30 mg/L DPC spray, 12 days (step 4.2)
[2] = 500 mg/L DPC spray, 12 days (step 4.2)

## C[N+]1(C)CCCCC1.[Cl-] [DPC, 1,1-dimethylpiperidinium chloride]
HRP::ga1-1; [1]
  Plant height (average): 9.714 cm
HRP::ga1-1; 50 mg/L DPC spray, 12 days
  Plant height (average): 9.314 cm
HRP::ga1-1; 100 mg/L DPC spray, 12 days
  Plant height (average): 9.343 cm
HRP::ga1-1; 300 mg/L DPC spray, 12 days
  Plant height (average): 8.857 cm
HRP::ga1-1; [2]
  Plant height (average): 8.586 cm
HRP::ga1-1; 1000 mg/L DPC spray, 12 days
  Plant height (average): 7.243 cm
ga1-1; 30 mg/L DPC spray
  Plant height: 4.13 ± 0.25 cm
ga1-1; 30 mg/L DPC
  Plant height reduction rate: 13.60%
ga1-1; 500 mg/L DPC spray
  Plant height: 3.95 ± 0.10 cm
ga1-1; 500 mg/L DPC
  Plant height reduction rate: 17.36%
ZmCPS::ga1-1; 30 mg/L DPC spray
  Plant height: 16.52 ± 0.31 cm
ZmCPS::ga1-1; 30 mg/L DPC
  Plant height reduction rate: −0.12%
ZmCPS::ga1-1; 500 mg/L DPC spray
  Plant height: 16.45 ± 0.21 cm
ZmCPS::ga1-1; 500 mg/L DPC
  Plant height reduction rate: 0.30%
ZmCPS::ga1-1; 30 and 500 mg/L DPC
  Effect of DPC on plant height (in words): no effect
pSuper1300::ga1-5; 30 mg/L DPC spray
  Plant height: 6.54 ± 0.20 cm
pSuper1300::ga1-5; 30 mg/L DPC
  Plant height reduction rate: 5.90%
pSuper1300::ga1-5; 500 mg/L DPC spray
  Plant height: 6.21 ± 0.14 cm
pSuper1300::ga1-5; 500 mg/L DPC
  Plant height reduction rate: 10.65%
Maize Zhengdan 958
  Plant height and stem diameter compared with control: no significant difference
HRP::ga1-5; [1]
  Plant height (average): 11.93 cm
HRP::ga1-5; 50 mg/L DPC spray, 12 days
  Plant height (average): 9.843 cm
HRP::ga1-5; 100 mg/L DPC spray, 12 days
  Plant height (average): 10.14 cm
HRP::ga1-5; 300 mg/L DPC spray, 12 days
  Plant height (average): 9.957 cm
HRP::ga1-5; [2]
  Plant height (average): 9.857 cm
HRP::ga1-5; 1000 mg/L DPC spray, 12 days
  Plant height (average): 7.357 cm
